Assay results: PubChem BioAssay (NCI)
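Five concentrations, 48 hours, 96-well plates. GI50: concentration for 50% inhibition of growth. TGI denotes the concentration required for complete inhibition of growth.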

Legend:
Experiment in all cases: inhibition of tumour cell growth, NCI panel, 48 h
786-0 renal = test system: 786-0 renal
A498 renal = test system: A498 renal
A549 NSCLC = test system: A549 NSCLC
ACHN renal = test system: ACHN renal
BT-549 breast = test system: BT-549 breast
CAKI-1 renal = test system: CAKI-1 renal
CCRF-CEM leukemia = test system: CCRF-CEM leukemia
COLO 205 colon = test system: COLO 205 colon
DU-145 prostate = test system: DU-145 prostate
EKVX NSCLC = test system: EKVX NSCLC
HCC-2998 colon = test system: HCC-2998 colon
HCT-116 colon = test system: HCT-116 colon
HCT-15 colon = test system: HCT-15 colon
HL-60(TB) leukemia = test system: HL-60(TB) leukemia
HOP-62 NSCLC = test system: HOP-62 NSCLC
HOP-92 NSCLC = test system: HOP-92 NSCLC
HS 578T breast = test system: HS 578T breast
HT29 colon = test system: HT29 colon
IGROV1 ovarian = test system: IGROV1 ovarian
K-562 leukemia = test system: K-562 leukemia
KM12 colon = test system: KM12 colon
LOX IMVI melanoma = test system: LOX IMVI melanoma
M14 melanoma = test system: M14 melanoma
MALME-3M melanoma = test system: MALME-3M melanoma
MCF7 breast = test system: MCF7 breast
MDA-MB-231 breast = test system: MDA-MB-231 breast
MDA-MB-435 = test system: MDA-MB-435
MOLT-4 leukemia = test system: MOLT-4 leukemia
NCI-H23 lung = test system: NCI-H23 lung
NCI-H460 lung = test system: NCI-H460 lung
NCI-H522 lung = test system: NCI-H522 lung
NCI/ADR-RES ovarian = test system: NCI/ADR-RES ovarian
OVCAR-3 ovarian = test system: OVCAR-3 ovarian
OVCAR-4 ovarian = test system: OVCAR-4 ovarian
OVCAR-5 ovarian = test system: OVCAR-5 ovarian
OVCAR-8 ovarian = test system: OVCAR-8 ovarian
PC-3 prostate = test system: PC-3 prostate
RPMI-8226 leukemia = test system: RPMI-8226 leukemia
RXF 393 renal = test system: RXF 393 renal
SF-268 CNS = test system: SF-268 CNS
SF-295 CNS = test system: SF-295 CNS
SF-539 CNS = test system: SF-539 CNS
SK-MEL-2 melanoma = test system: SK-MEL-2 melanoma
SK-MEL-28 melanoma = test system: SK-MEL-28 melanoma
SK-MEL-5 melanoma = test system: SK-MEL-5 melanoma
SK-OV-3 ovarian = test system: SK-OV-3 ovarian
SN12C renal = test system: SN12C renal
SNB-19 CNS = test system: SNB-19 CNS
SNB-75 CNS = test system: SNB-75 CNS
SR leukemia = test system: SR leukemia
SW-620 colon = test system: SW-620 colon
T-47D breast = test system: T-47D breast
TK-10 renal = test system: TK-10 renal
U251 CNS = test system: U251 CNS
UACC-257 melanoma = test system: UACC-257 melanoma
UACC-62 melanoma = test system: UACC-62 melanoma
UO-31 renal = test system: UO-31 renal

## COc1cc2c(c(Br)c1N)-c1cc(Br)c(N)cc1C2=O
786-0 renal
  GI50: > 100 µM
  TGI: > 100 µM
A498 renal
  GI50: > 61.7 µM
  TGI: > 100 µM
A549 NSCLC
  GI50: > 89.9 µM
  TGI: > 100 µM
ACHN renal
  GI50: > 100 µM
  TGI: > 100 µM
BT-549 breast
  GI50: > 24.8 µM
  TGI: > 100 µM
CAKI-1 renal
  GI50: > 100 µM
  TGI: > 100 µM
CCRF-CEM leukemia
  GI50: > 100 µM
  TGI: > 100 µM
COLO 205 colon
  GI50: > 87 µM
  TGI: > 100 µM
DU-145 prostate
  GI50: 59.8 µM
  TGI: > 100 µM
EKVX NSCLC
  GI50: 9.99 µM
  TGI: > 100 µM
HCC-2998 colon
  GI50: 4.97 µM
  TGI: > 100 µM
HCT-116 colon
  GI50: 3.49 µM
  TGI: > 100 µM
HCT-15 colon
  GI50: > 100 µM
  TGI: > 100 µM
HL-60(TB) leukemia
  GI50: > 100 µM
  TGI: > 100 µM
HOP-62 NSCLC
  GI50: 10.1 µM
  TGI: > 100 µM
HOP-92 NSCLC
  GI50: 2.98 µM
  TGI: > 100 µM
HS 578T breast
  GI50: 3.02 µM
  TGI: > 100 µM
HT29 colon
  GI50: > 100 µM
  TGI: > 100 µM
IGROV1 ovarian
  GI50: 0.205 µM
  TGI: > 100 µM
K-562 leukemia
  GI50: > 100 µM
  TGI: > 100 µM
KM12 colon
  GI50: > 85.1 µM
  TGI: > 100 µM
LOX IMVI melanoma
  GI50: > 100 µM
  TGI: > 100 µM
M14 melanoma
  GI50: 50.9 µM
  TGI: > 100 µM
MALME-3M melanoma
  GI50: > 100 µM
  TGI: > 100 µM
MCF7 breast
  GI50: 0.131 µM
  TGI: > 100 µM
MDA-MB-231 breast
  GI50: 3.07 µM
  TGI: > 81 µM
MDA-MB-435
  GI50: > 100 µM
  TGI: > 100 µM
MOLT-4 leukemia
  GI50: > 100 µM
  TGI: > 100 µM
NCI-H23 lung
  GI50: 4.3 µM
  TGI: > 100 µM
NCI-H460 lung
  GI50: 3.21 µM
  TGI: > 100 µM
NCI-H522 lung
  GI50: 9.15 µM
  TGI: 59.6 µM
NCI/ADR-RES ovarian
  GI50: 5.31 µM
  TGI: > 100 µM
OVCAR-3 ovarian
  GI50: > 100 µM
  TGI: > 100 µM
OVCAR-4 ovarian
  GI50: 1.77 µM
  TGI: > 100 µM
OVCAR-5 ovarian
  GI50: 0.0894 µM
  TGI: > 100 µM
OVCAR-8 ovarian
  GI50: 4.9 µM
  TGI: > 100 µM
PC-3 prostate
  GI50: > 100 µM
  TGI: > 100 µM
RPMI-8226 leukemia
  GI50: > 100 µM
  TGI: > 100 µM
RXF 393 renal
  GI50: > 100 µM
  TGI: > 100 µM
SF-268 CNS
  GI50: 7.37 µM
  TGI: > 100 µM
SF-295 CNS
  GI50: > 100 µM
  TGI: > 100 µM
SF-539 CNS
  GI50: 4.93 µM
  TGI: > 100 µM
SK-MEL-2 melanoma
  GI50: > 100 µM
  TGI: > 100 µM
SK-MEL-28 melanoma
  GI50: > 100 µM
  TGI: > 100 µM
SK-MEL-5 melanoma
  GI50: 5.39 µM
  TGI: > 100 µM
SK-OV-3 ovarian
  GI50: 11.3 µM
  TGI: > 73.5 µM
SN12C renal
  GI50: 6.33 µM
  TGI: > 100 µM
SNB-19 CNS
  GI50: > 100 µM
  TGI: > 100 µM
SNB-75 CNS
  GI50: 1.96 µM
  TGI: > 100 µM
SR leukemia
  GI50: 0.0592 µM
  TGI: > 100 µM
SW-620 colon
  GI50: > 100 µM
  TGI: > 100 µM
T-47D breast
  GI50: 0.307 µM
  TGI: > 100 µM
TK-10 renal
  GI50: 0.354 µM
  TGI: > 100 µM
U251 CNS
  GI50: 4.58 µM
  TGI: > 100 µM
UACC-257 melanoma
  GI50: > 100 µM
  TGI: > 100 µM
UACC-62 melanoma
  GI50: > 100 µM
  TGI: > 100 µM
UO-31 renal
  GI50: > 100 µM
  TGI: > 100 µM
